Like-named read-outs stand apart in the source and are kept apart here.
What was measured:
[1] = test system: SW527 (Breast) tumor cells; assay: alamarBlue growth inhibition, SW527; format: cell-based, human; conditions: 120 hours
Description: (§1) Growth Inhibition Studies. Cells growing exponentially were transferred to 384-well flat bottom tissue culture plates. All cell types were plated at a density of 500 cells per well in 25 μL of complete medium (RPMI 1640+10% fetal bovine serum+antibiotics/antimycotics). After 24 hours (day 0), 25 μL of complete medium containing the experimental compounds over the dose range of 10^ñ3 to 10^ñ10 M were added in triplicate. […] 5 μL of the redox indicator, alamarBlue, was added to each well (10% v/v). After 4 hours incubation at 37° C., fluorescence was monitored at 535 nm excitation and 595 nm emission.
(§2) Concentration vs. relative fluorescence units (RFU) were plotted, and sigmoid curves were fit using the Hill equation.

[2] = test system: H630R10 5FU-resistant colon tumor cells; assay: alamarBlue growth inhibition, H630R10; format: cell-based, human
Description: as §1, §2

[3] = test system: PC3 (Prostate) tumor cells; assay: alamarBlue growth inhibition, PC3; format: cell-based, human; conditions: 120 hours
Description: as §1, §2

N1S1 cells = assay: alamarBlue cytotoxicity, N1S1 parental; format: cell-based; conditions: N1S1, Drug Selection None; read-out: NB1011-IC50
Description: as §1, §2
Cells were grown and characterized as described above. TS expression level is relative to CCD18co, a normal colon epithelial cell line. Tritium release is background substracted as described in Methods. ND=Not detectable above background.

[4] = test system: DET551 (Skin) normal cells; assay: alamarBlue growth inhibition, DET551; format: cell-based, human; conditions: 120 hours
Description: as §1, §2

[5] = test system: MCF7 (Breast) tumor cells; assay: alamarBlue growth inhibition, MCF7; format: cell-based, human
Description: as §1, §2

A431 (Skin) tumor cells = assay: alamarBlue growth inhibition, A431; format: cell-based, human; conditions: 120 hours
Description: as §1, §2

[6] = test system: NPRSC (Prostate) normal cells; assay: alamarBlue growth inhibition, NPRSC; format: cell-based, human; conditions: 120 hours
Description: as §1, §2

[7] = test system: SW620 (Colon) tumor cells; assay: alamarBlue growth inhibition, SW620; format: cell-based, human; conditions: 120 hours
Description: as §1, §2

[8] = test system: SKOV3 (Ovary) tumor cells; assay: alamarBlue growth inhibition, SKOV3; format: cell-based, human; conditions: 120 hours
Description: as §1, §2

SOAS2 (Bone) tumor cells = assay: alamarBlue growth inhibition, SOAS2; format: cell-based, human; conditions: 120 hours
Description: as §1, §2

[9] = test system: SKHEP1 (Liver) tumor cells; assay: alamarBlue growth inhibition, SKHEP1; format: cell-based, human; conditions: 120 hours
Description: as §1, §2

TSL/HT1080 cells = assay: alamarBlue cytotoxicity, HT1080 expressing low GFP-TS; format: cell-based, human; conditions: TSL/HT1080, TS Level 409%
Description: Cell lines and transfection. HT1080 cells were grown in PRM11640 medium supplemented with 10% fetal calf serum, and transfected with GFP-TS expression vector. 48 hours after, transfection cells were tripsinized and replated in culture medium containing 750 μg/ml G418. After selection with G418 for two weeks, surviving cells were sorted based upon fluorescence expression. One clone with higher fluorescence expression (named as TSH/HT1080) and one clone with lower fluorescence expression (named as TSL/HT1080) were selected and expanded into cells lines. The stable HT1080 cells transfected with pEGFP-C3 were used as control.
Construction of GFP-TS expression vector. […] The cDNA was cloned into HindIII and KpnI sites of mammalian expression vector pEGFP-C3 (Clontech Laboratories. Inc., Palo Alto, Calif.), in-frame with GFP sequence. The cDNA insert was confirmed by DNA sequencing.
Growth Inhibition Studies. Cells growing exponentially were transferred to 384-well flat bottom tissue culture plates. All cell types were plated at a density of 500 cells per well in 25 μL of complete medium (RPMI 1640+10% fetal bovine serum+antibiotics/antimycotics). […] After 4 hours incubation at 37° C., fluorescence was monitored at 535 nm excitation and 595 nm emission.
as §2

H527 (Skin) normal cells = assay: alamarBlue growth inhibition, H527; format: cell-based, human; conditions: 120 hours
Description: as §1, §2

NHLF (Lung) normal cells = assay: alamarBlue growth inhibition, NHLF; format: cell-based, human; conditions: 120 hours
Description: as §1, §2

[10] = test system: PANC1 (Pancreas) tumor cells; assay: alamarBlue growth inhibition, PANC1; format: cell-based, human; conditions: 120 hours
Description: as §1, §2

Substance: 5-(2-Bromovinyl)-2′-deoxyuridine phenyl N-methoxy-L-alaninyl phosphoramidate [NB1011]
- IC50 [1]: 431 µM
- IC50 ([2]; H630 Colon cancer, Drug Selection 5FU, read-out: NB1011-IC50): 65 µM
- NB1011 activity diminished, compared to NB1011 alone ([2]; H630R10, in the presence of 3 μM LV, alamarBlue): more than 90%
- IC50 ([2]; H630R10, comparison with 5FUdR, read-out: IC50): 217 µM
- IC50 ([2]; Tumor Cells: H630R10 (Colon), alamarBlue, 120 hours, read-out: IC50): 65 µM
- IC50 [3]: 184 µM
- IC50 (N1S1 cells): 494 µM
- IC50 [4]: 262 µM
- IC50 ([5]; MCF7, alamarBlue, read-out: IC50): 291 µM
- IC50 ([5]; MCF7 Breast cancer, Drug Selection None, read-out: NB1011-IC50): 327 µM
- IC50 ([5]; Tumor Cells: MCF7 (Breast), alamarBlue, 120 hours, read-out: IC50): 141 µM
- IC50 (A431 (Skin) tumor cells): 266 µM
- IC50 [6]: 369 µM
- IC50 [7]: 374 µM
- IC50 [8]: 484 µM
- IC50 (SOAS2 (Bone) tumor cells): 232 µM
- IC50 [9]: 247 µM
- IC50 (TSL/HT1080 cells): 196 µM
- IC50 (H527 (Skin) normal cells): 273 µM
- IC50 (NHLF (Lung) normal cells): 139 µM
- IC50 [10]: 492 µM

Source: patent US7462605B2, “Phosphoramidate compounds and methods of use” (Celmed Oncology (USA), Inc., priority 2002, dated 2008)
